Measurements: patent US12521393B2, “Cytotoxicity targeting chimeras for CCR2-expressing cells” (GLAXOSMITHKLINE INTELLECTUAL PROPERTY DEVELOPMENT LIMITED, priority 2021, dated 2026)
Values joined by “and” are separate entries in the source; they are usually repeats but may differ in a detail not shown here. Equal values may be shown once.

Key:
CCR2+ expressing cells = assay: Alternative dosing strategy (Example 206): percent depletion of CCR2+ expressing cells by flow cytometry; assay type: in vivo; conditions: co-dosed vs sequentially dosed intravenously with anti-cotinine antibody
[1] = target: anti-cotinine antibody (SEQ ID NO: 9/10, humanized version); assay: SPR binding of anti-cotinine antibody to ARM compounds, Biacore 8k, 25° C., humanized antibody (Example 202)
From the text: (§1) Anti-cotinine antibodies having a heavy chain sequence of SEQ ID NO: 9 and a light chain sequence of SEQ ID NO: 10 (humanized version) or a heavy chain sequence of SEQ ID NO: 11 and a light chain sequence of SEQ ID NO: 12 (rabbit version) were captured via the Fc domain to a protein A or A/G surface on flow cell 2 of a CMS sensor chip using the Biacore 8k.
(§2) After antibody capture, a 1500 second wait step was included to reduce drift in the binding step. ARM compounds of Formula (I) were then flowed over the captured antibodies at varying top concentrations ranging from 250 nM to 4 μM (see Table 6 below for top concentration values). The top concentration was diluted 4-fold over 5 dilutions (with a 0 nM compound cycle included to blank subtract the data). Association and dissociation times of the ARMs compounds of Formula (I) varied between experiments as follows and indicated in Table 6 below: reference 1-association for 600 seconds and dissociation for 1200 seconds at 20 μl/min; reference 2-association for 240 seconds and dissociation for 300 seconds at 30 μl/min; reference 3-association for 360 seconds and dissociation for 600 seconds at 30 μl/min. Anti-cotinine antibody bound to the protein A or A/G surface was regenerated using 50 mM NaOH. Experiments were run at 25° C. at pH 7.4 using HBS-EP+ buffer using Biacore 8K control software and evaluated using Biacore Insight Evaluation software. Curves were fit with the 1:1 kinetic fit inherent to the software, utilising a local Rmax and local drift setting.
(§3) Anti-cotinine antibody was tested for binding to ARMs compounds of Formula (I) of the invention in the above assay in or more experimental runs and the results are shown in Table 6 below. Affinity is reported as a pKd value. The pKd value is the negative log of the Kd value, wherein the Kd value is the dissociation constant measured in molar (M) as noted above. For compounds tested in more than one experimental run, the pKd value is reported as an average.

[2] = test system: anti-cotinine antibody (SEQ ID NO: 11/12, rabbit version); assay: SPR binding of anti-cotinine antibody to ARM compounds, Biacore 8k, 25° C., rabbit antibody (Example 202); conditions: time reference 3 (association 360 s, dissociation 600 s, 30 μl/min)
From the text: as §1, §2, §3

[3] = Alternative dosing strategy (Example 206): blood concentration of small molecule ARM compound; assay type: in vivo; conditions: co-dosed vs sequentially dosed intravenously with anti-cotinine antibody
From the text: FIG. 5: Alternative dosing strategy of small molecule ARM compound to anti-cotinine antibody, as described in Example 206, with anti-cotinine antibody administered intravenously and ARM compound (Example 1) administered subcutaneously following a 2-hour delay from antibody dosing at various molar ratios of small molecule ARM: antibody; data shown is blood concentration of small molecule ARM compound at various timepoints following administration.

[4] = time reference 3 (association 360 s, dissociation 600 s, 30 μl/min)

CC(C)N(C)[C@@H]1CC[C@H](N2CC[C@H](Nc3ncnc4ccc(C(F)(F)F)cc34)C2=O)[C@H](NC(=O)[C@H]2CC[C@H](NC(=O)CCCO[C@H]3CC[C@H](OCCNC(=O)[C@H]4CC(=O)N(C)[C@@H]4c4cccnc4)CC3)CC2)C1 [Example 1, (2S,3S)-N-(2-(((1R,4S)-4-(4-(((1R,4R)-4-(((1R,2S,5R)-5-(Isopropyl(methyl)amino)-2-((S)-2-oxo-3-((6-(trifluoromethyl)quinazolin-4-yl)amino)pyrrolidin-1-yl)cyclohexyl)carbamoyl)cyclohexyl)amino)-4-oxobutoxy)cyclohexyl)oxy)ethyl)-1-methyl-5-oxo-2-(pyridin-3-yl)pyrrolidine-3-carboxamide]
PD (percent depletion of CCR2+ expressing cells) (CCR2+ expressing cells): unchanged | kd ([1]; time reference 1 (association 600 s, dissociation 1200 s, 20 μl/min)): 0.000456 s⁻¹ and 0.000649 s⁻¹ | ka [1, 4]: 1.64e+06 M⁻¹ s⁻¹ | kd [1, 4]: 0.000414 s⁻¹ | pKd [1, 4]: 9.6 | ka [2]: 5.57e+06 M⁻¹ s⁻¹ | kd [2]: 0.000156 s⁻¹ | pKd [2]: 10.55 | PK (blood concentration of small molecule ARM compound) [3]: unchanged
